The source of these data is US5608095A, “Alkyl-4-silyl-phenols and esters thereof as antiatherosclerotic agents” (Hoechst Marion Roussel, Inc., priority 1996, dated 1997).

Data set [1] is described as follows: HPLC quantitation of compound and metabolite concentration in rat serum and liver. Format: in vivo, male Sprague-Dawley rats. The conditions noted are these: diet 0.3%, 4 days; for Liver Parent = parent compound concentration: rat liver; for Serum Parent = parent compound concentration: rat serum. An excerpt: (§1) A typical experiment consisted of 4-6 groups of rats (N=5 per group) with 1 group being a control which received no MDL compound and the other groups being treated with 0.3% MDL compound. Some of the compounds were either repeated at 0.3% or evaluated again at the lower dose of 0.1%. Male Sprague-Dawley rats, 50-100 g, (Harlan Laboratories, Indianapolis, Ind.) were housed in groups of 5, fed ad libitum water and Purina Rodent chow (#5002) with or without MDL compound as a dietary admixture for 4 days. Dietary admixtures (0.3%) were made by mixing 1.2 grams of an MDL compound with 400 grams of Purina rodent chow (#5002). The MDL compound was mixed with approximately 50 grams of food using a mortar and pestle. This was added to the remainder of the food and mixed for 3 hours on a rotary mixer. In the morning of day 5, non-fasted rats were anesthetized with carbon dioxide, and blood was collected by cardiac puncture. Rats were sacrificed by cervical dislocation. Body weights and liver weights were recorded in grams. Food consumption was recorded as grams.cndot.day^-1.cndot.rat^-1. Deaths were recorded as mortality. Aliquots of fresh serum were used for clinical chemistries, thiobarbituric acid reactive substances (TBARS) and conjugated diene measurements. Aliquots of serum (~0.5mL) and whole livers were frozen at -20° C. for compound and metabolite concentration determination at a later time.
Serum and liver concentrations of parent compound and the metabolites, bisphenol and diphenoquinone, were determined by reverse phase HPLC using a Waters 990 Powerline system. Livers (1 gram samples) were homogenized with 5.0 mL PBS, pH 7.4, using a Polytron tissue homogenizer at setting 5 for 20-30 seconds. Serum or liver homogenates were extracted as follows: 100μL of either serum or homogenate were added to 2.0 mL diethyl ether:ethanol (3:1) while vortexing the tube. The sample tubes were capped and centrifuged for 10 min at 5° C. at 3500 rpm in a Beckman GPKR centrifuge with a GH 3.7 rotor. The supernatants were transferred to clean tubes and dried under N2. Samples were reconstituted with 200 μL of acetonitrile:hexane:0.1M ammonium acetate (90:6.5:3.5, by vol.). Then, 100 μL were injected onto a Waters Deltapak C18-300 Å column, and eluted with an 83% acetonitrile:17% water mobile phase at a flow rate of 1.5 mL/min. Absorbances at the wavelengths of 240, 254, and 420 nm were recorded. Compound concentrations were calculated from known quantities of authentic parent compounds after correction for recovery; the range of recovery from spiked samples was 40 to 100%. The lowest detectable limit for this class of compounds was ~0.5 μg/mL. […]. Concentrations were calculated as μg/mL of serum and μg/g of liver.

Another data set deals with oxidation of lipids. As to the kind of experiment: Conjugated diene determination, rat serum. The conditions noted are these: pooled rat serum, diet 0.3%, 4 days, mean of 2 determinations. It counts as in vivo, male Sprague-Dawley rats.
Text: as §1
Conjugated diene lag phase is another indicator of the oxidation of lipids. Lipids exposed to Cu^++ form conjugated dienes that absorb ultraviolet light in the range of 230 to 235 nm. The lag phase of diene formation gives an indication of the amount of oxidation of the lipids. A lag phase longer than control samples indicate inhibition of the oxidation. Conjugated diene lay phase was determined using a Varian DMS200 spectrophotometer (fitted with a constant temperature, 5 cuvette sample changer) at 30° C. Twenty (20) μL of pooled serum were added to cuvettes containing 3.0 mL phosphate buffered saline, pH 7.5, and mixed. The absorbances of all cuvettes were measured, and the instrument baseline was set to zero using the lowest absorbing sample. Next, 100 μL of 1 mmol CuSO4 were added and immediately mixed. The absorbance of each cuvette was recorded at 2 min intervals for a period of 840 min. The data were captured and transferred to a Microsoft EXCEL® spreadsheet where the curves were smoothed and differentials obtained. Lag times were determined mathematically as minutes. Serum samples were pooled (N=5); data presented are the mean values of 2 determinations. Serum samples from treated rats were compared to serum samples from control rats that received no MDL compound.

The nature of data set [2]: Animal parameters (food, body weight, liver weight, mortality) in rats. Format: in vivo, male Sprague-Dawley rats. The conditions noted are these: diet 0.3%, 4 days; for mortality at 96 h: in vivo, po, read-out: mortality (deaths per group); for mortality at 96 h / body wt., percent of control / lw/bw (liver weight/body weight), percent of control: rat.
Text: as §1

Data set [3] is described as follows: Clinical chemistries in serum of rats. It counts as in vivo, male Sprague-Dawley rats. The note with it: for response vs control in vivo at 0.3 %: Rattus norvegicus, po, 96 h; for ALP (alkaline phosphatase), percent of control / ALT (alanine aminotransferase), percent of control / AST (aspartate aminotransferase), percent of control / GLUC (glucose), percent of control: rat serum, diet 0.3%, 4 days.
Text: as §1
Blood was allowed to clot at room temperature for 30 minutes. Serum was obtained after centrifugation for 10 min at 4° C. at 3000 rpm in a Beckman J-6M/E centrifuge with a JS-4.2 rotor. Fresh serum was analyzed by a COBAS MIRA S autoanalyzer (Roche Diagnostics) using Roche diagnostic reagents for the following clinical chemistry measurements: alkaline phosphatase (ALP, kit #44553), alanine transaminase (ALT, kit #42375), aspartate aminotransferase (AST, kit #42381), total cholesterol (CHOL, kit #44334), triglyceride (TG, kit #44120), and glucose (GLU, kit #44558). ALP, ALT, and AST were calculated as units/L. Cholesterol, triglycerides, and glucose were calculated as mg/dL.

Data set [4] relates to oxidation of serum lipids. Kind of data set: TBARS assay, rat serum. The conditions noted are these: Rattus norvegicus, po, 96 h, read-out: TBARS, percent of control. It counts as in vivo, male Sprague-Dawley rats.
Text: as §1
In this assay the oxidation of serum lipids is initiated with CuSO4, resulting in the formation of aldehydes, such as malondialdehyde (MDA). Upon incubation with thiobarbituric acid, the absorbance of the aldehydes can be detected at 530-540 nm. As stated in the previous example, TBARS values which are lower than control serum values indicate the relative ability of a test compound to inhibit the oxidation of lipids in a sample. TBARS were measured as follows: 100 μL of serum were mixed with 400 μL of a 5 mmol CuSO4 solution and incubated at 37° C. for 3 hr. The reactions were stopped by addition of 1.0 mL of 20% trichloroacetic acid. Then 1.0 mL of 0.67% thiobarbituric acid in 0.05N sodium hydroxide was added, mixed, and the samples incubated for 30 min at 90° C. Samples were centrifuged briefly to pellet undissolved material, and the supernatants were transferred to a 96-well microtiter plate. Absorbances were measured at 540 nm using a Biotek model EL311 microplate reader. The nmoles of MDA produced were calculated from a standard curve of 0 to 10 nmoles of MDA prepared from malonaldehyde bis(dimethylacetal). Serum samples from treated rats were compared to serum samples from control rats that received no MDL compound.

The subject of another data set is VCAM-1. The note with it: vascular endothelial cells; cited from earlier work.
Where [5] appears, read: read-out: CHOL (total cholesterol), percent of control.
Setting [6] is: read-out: TRIG (triglycerides), percent of control.

The structures appear in SMILES notation. Read-outs that look alike come from different tables or passages of the source.

As usually defined, the mortality is the share of the test organisms that died. Turning to `CC(=O)Oc1c(C)cc(OC[Si](C)(C)c2ccccc2)c(C)c1C` [MDL 103,157, 2,3,6-Trimethyl-4-[(dimethylphenylsilyl)methyloxy]phenol acetic acid ester], in data set [1], the “Liver Parent = parent compound concentration” value was 0 µg/g and the “Serum Parent = parent compound concentration” value was 0 µg/mL. Also, the “CONJ. DIENE (conjugated diene lag phase)” value with oxidation of lipids was determined as 50 min. Also, in data set [2], the “food (grams eaten per day per rat), percent of control” value is recorded as 96%; the mortality at 96 h came out at 0%; the “body wt., percent of control” value is on record as 96%; the “lw/bw (liver weight/body weight), percent of control” value was 120%. Besides, in data set [3] (setting [5]), the response vs control in vivo at 0.3 % is 112%. For the same compound, the response vs control in vivo at 0.3 % in data set [3] (setting [6]) amounted to 82%. In data set [3], the “ALP (alkaline phosphatase), percent of control” value (from here on “ALP … percent of control”) was 144%; the “ALT (alanine aminotransferase), percent of control” value (“ALT … percent of control” for short) worked out at 133%; the “AST (aspartate aminotransferase), percent of control” value (“AST … percent of control” for short) is 92%; the “GLUC (glucose), percent of control” value is recorded as 100%. For the same compound, the response vs control in vivo at 0.3 % in data set [4] came to 94%.
With `CC(C)(C)c1cc(OC[Si](C)(C)c2ccccc2)ccc1OC(=O)CCC(=O)O` [MDL 104,399, 2-t-Butyl-4-[(dimethylphenylsilyl)methyloxy]phenol succinic acid ester], in data set [1], the “Liver Parent = parent compound concentration” value amounted to 0 µg/g and the “Serum Parent = parent compound concentration” value was determined as 0 µg/mL. Moreover, the “CONJ. DIENE (conjugated diene lag phase)” value with oxidation of lipids was 395 min. For the same compound, in data set [2], the “food (grams eaten per day per rat), percent of control” value is recorded as 90%; the mortality at 96 h came to 0%; the “body wt., percent of control” value turned out to be 101%; the “lw/bw (liver weight/body weight), percent of control” value is given as 118%. The response vs control in vivo at 0.3 % in data set [3] (setting [5]) was determined as 130%. Further, the response vs control in vivo at 0.3 % in data set [3] (setting [6]) amounted to 168%. Besides, in data set [3], the “ALP … percent of control” value is listed as 91%; the “ALT … percent of control” value is on record as 107%; the “AST … percent of control” value was found to be 102%; the “GLUC (glucose), percent of control” value is given as 88%. In data set [4], the response vs control in vivo at 0.3 % is 41%.
As for `CC(=O)Oc1cc(C(C)(C)C)c(OC[Si](C)(C)c2ccccc2)cc1C(C)(C)C` [MDL 106,290, 2,5-Di-t-butyl-4-[(dimethylphenylsilyl)methyloxy]phenol acetic acid ester], the “CONJ. DIENE (conjugated diene lag phase)” value with oxidation of lipids came to 372 min. For the same compound, in data set [2], the “food (grams eaten per day per rat), percent of control” value is listed as 108%; the mortality at 96 h amounted to 0%; the “body wt., percent of control” value was found to be 95%; the “lw/bw (liver weight/body weight), percent of control” value is 104%. Moreover, the response vs control in vivo at 0.3 % in data set [3] (setting [5]) was found to be 153%. In addition, the response vs control in vivo at 0.3 % in data set [3] (setting [6]) came to 75%. For the same compound, in data set [3], the “ALP … percent of control” value was 118%; the “ALT … percent of control” value was 89%; the “AST … percent of control” value is 84%; the “GLUC (glucose), percent of control” value was 109%. The response vs control in vivo at 0.3 % in data set [4] is 17%.
For the compound `CC(=O)N[C@@H](CS)C(=O)O` [N-acetylcysteine], the “inhibition of cytokine-induced expression of VCAM-1” value in the data set on VCAM-1 was “inhibit cytokine-induced expression of VCAM-1”.
As to `S=C(S)N1CCCC1` [pyrollidine dithiocarbamate], the “inhibition of cytokine-induced expression of VCAM-1” value with VCAM-1 is “inhibit cytokine-induced expression of VCAM-1”.
